# Experimental data as given in patent US20120214834A1, “IMMUNE ENHANCEMENT COMPOSITION AND KIT AND USE THEREOF” (priority 2011, published 2012).
# Test system: Human erythromyeloblastoid leukemia cell line K562 (target cells of NK cells)
# Test: Activity of NK cells against pre-treated K562 target cells, by flow cytometer (PKH67-GL / PI)
# Type: cell-based
# Settings: K562 target cells treated with 10 nM rapamycin alone for 48 hours; effector:target 25:1, 16 hours co-culture
# Method: Select Human erythromyeloblastoid leukemia cell line K562 as target cells and culture it by tissue culture technique in RPMI 1640 supplemented with 10% FBS to a proper amount. And then, take a suspension containing 1×10^6 cells and inoculate it in a 6-wells plate. […] And then, put the plate into a 37° C. incubator to continue culturing for 48 hours.
# Use 1 mM of green fluorescent cell linker dye PKH67-GL(Sigma-Aldrich), which resolves in alcohol, to label the aforementioned cells. The detail steps are: resuspend 1×10^6 cells in 1 ml of Diluent C(Sigma-Aldrich), add PKH67-GL until the density reaches 4×10^−6 M and dye for 4 minutes under 25 °C. Add 1 ml FBS and 2 ml complete medium to end the coloring reaction, then wash it with PBS for three times. And then, dilute the amount of cells in a complete medium until it reaches 2.5×10^5 cells per ml and confirm the labeling and activity of cells by a Flow cytometer.
# Dilute the amount of NK cells (the effector cell of the present Experimental Example) to 6.25×10^6 per ml. Mix 100 μl of the aforementioned diluted cell solution with 100 μl of the target cell solution so that the ratio of effector cells and target cells reaches 25:1. Put the mixed cells in a cell culture and culture for 16 hours in a 37□ incubator with 5% CO2. […]
smiles,measurement,value
CO[C@H]1C[C@@H]2CC[C@@H](C)[C@@](O)(O2)C(=O)C(=O)N2CCCC[C@H]2C(=O)O[C@H]([C@H](C)C[C@@H]2CC[C@@H](O)[C@H](OC)C2)CC(=O)[C@H](C)/C=C(\C)[C@@H](O)[C@@H](OC)C(=O)[C@H](C)C[C@H](C)/C=C/C=C/C=C/1C [rapamycin],"activity ratio of NK cells, increase over Control",15%
